# Columns and labels:
# [1] = tested on: Aβ1-42 (H4-APPsw); test: Aβ1-42 time-resolved fluorescence immunoassay in H4-APPsw cell cultures; type: cell-based, human; settings: Homo sapiens; H4-APPsw cultures treated overnight
# Method: (§1) H4-APPsw cell cultures were maintained on Dulbecco's modified Eagle's medium (DMEM) supplemented with L-glutamine (2 mM), fetal bovine serum (10%), and G418 (100 μg/mL). […] Aβ1-42 and Aβ1-40 assays, and Notch inhibition assays, were carried out as described previously. Mouse embryonic fibroblasts deficient in PS1 and PS2 (MEF dKO) were passaged twice per week in DMEM/F-12 medium, consisting of a 1 : 1 mixture of DMEM and F-12 nutrient mixture supplemented with 10% fetal bovine serum, penicillin, and streptomycin. For expression of human presenilin-1 in MEF dKO cells, the full length human presenilin-1 cDNA open reading frame was cloned between the BamHI and XhoI sites of the vector pcDNA5/FRT (Invitrogen), placing presenilin-1 expression under the control of the CMV promoter. The M146V mutated allele was introduced into the presenilin-1 expression construct by polymerase chain reaction using the oligonucleotide primers 5′-[…]-3′ and 5′-[…]-3 (QuikChange kit, Invitrogen). MEF dKO cultures were cotransfected with DNA constructs expressing APP-CTF, encoding the C-terminal 99 amino acids of APP [61] and either the human presenilin-1 or presenilin-1 M146V allele. Transfected cultures were incubated overnight at 37°C in 5% CO2 atmosphere and then harvested, resuspended in DMEM/F-12 medium, dispensed into 96-well culture plates, and incubated for 6 hours at 37°C in 5% CO2 atmosphere. Culture medium was then replaced with Ultraculture serum free medium (Lonza, Rockland, ME) with or without compounds at a range of concentrations and incubated overnight.
# (§2) IC50 determinations for Aβ1-42 and Aβ1-40 in H4-APPsw cultures in 384-well format were determined using homogeneous time-resolved fluorescence immunoassays as previously described. The principle of these assays is illustrated in Figures 1(c) and 1(d). In other experiments using H4-APPsw cultures, Aβ was quantified by ELISA; for Aβ1-42 the combination of monoclonal antibodies was 26D6 and 565-HRP; for Aβ1-40 it was TSD and 26D6-HRP, and for Aβ1-x it was 4G8 and 26D6-HRP. In some experiments a novel 4-plex Aβ electrochemiluminescence immunoassay was used (Mesoscale Discovery catalog number N45ZA-1). Briefly, the 4-plex was carried out in 96-well format, with 4 separate spots of capture antibodies in each well. […] For Aβ in transiently transfected PS1/PS2 dKO fibroblasts, Aβ1-42 was quantified using an ELISA kit (WACO), and Aβ1-40 was quantified by ELISA as described above for H4-APPsw cultures. […] For the rat and mouse experiments illustrated in Figures 7 and 8, brain samples were prepared by solid phase extraction, and endogenous rat brain Aβ1-42 and Aβ1-40 were quantified by ELISA as previously described for wild type mice. […]
# [2] = tested on: Aβ1-40 (H4-APPsw); test: Aβ1-40 time-resolved fluorescence immunoassay in H4-APPsw cell cultures; type: cell-based, human; settings: Homo sapiens; H4-APPsw cultures treated overnight
# Method: as §1, §2
# [3] = tested on: mNotch1ΔE; test: Notch signaling CBF1-luciferase reporter assay in HeLa cells transfected with mNotch1ΔE; type: cell-based
# Method: (§3) Inhibition of Notch signaling in cultured cells using a mouse-derived truncated Notch1 transgene, mNotch-ΔE [67], has been described in detail previously. Western blots for mNotchΔ1865 and NICD using 9E10 anti-c-myc monoclonal were carried out as previously described.
# (§4) The effect of BMS-869780 on Notch processing was evaluated using transcriptional reporter assays and western blotting of NICD levels. HeLa cell cultures were transfected with mNotch1ΔE and CBF1-luciferase reporter constructs and treated with BMS-869780. In most replicates of this experiment, inhibition of luciferase reporter occurred with IC50 > 10 μM. […] To further evaluate the effect of BMS-869780 on Notch processing, western blots of cell cultures were carried out using mNotch1Δ1865, a truncated version of mNotch1ΔE that facilitates separation of NICD product from mNotch1 substrate on western blots. HeLa cell cultures were transfected with mNotch1Δ1865 and treated overnight with compounds before western blotting. […] Furthermore, the GSIs caused an increased level of mNotch1Δ1865 substrate, most likely due to inhibition of its turnover by γ-secretase, as previously noted by Blat et al..
# (§5) (b) HeLa cell cultures were transfected with mNotchΔ1865, treated with compounds overnight, and cell extracts were evaluated by western blot using anti-c-myc-HRP conjugate. Lanes 1 and 9: DMSO (0.1%) vehicle. Lane 2: BMS-299897 at 1 μM. Lane 3: BMS-433796 at 0.3 μM. Lanes 4–8: BMS-869780 at 0.1, 0.3, 1, 3, and 10 μM, respectively.
# [4] = tested on: mNotch1Δ1865; test: Western blot of NICD and mNotch1Δ1865 in transfected HeLa cell cultures; type: cell-based; settings: BMS-299897 at 1 μM, BMS-433796 at 0.3 μM
# Method: as §3, §4, §5
compound,measurement,setting,value
"C[C@H](NC(=O)[C@@H](O)c1cc(F)cc(F)c1)C(=O)N[C@@H]1C(=O)N(C)N=Cc2ccccc21 [BMS-433796, (S)-2-((S)-2-(3,5-difluorophenyl)-2-hydroxyacetamido)-N-((S,Z)-3-methyl-4-oxo-4,5-dihydro-3H-benzo[d][1,2]diazepin-5-yl)propanamide, reference compound]",IC50,[1],0.16 nM
same,IC50,[2],0.19 nM
same,Notch/Aβ1-42 IC50 ratios,[3]; GSIs,13
same,IC50,"[3]; HeLa, treated overnight",2.1 nM
same,mNotch1ΔE/Aβ1-42,[3]; ratio of IC50 values,13x
same,NICD levels,[4],greatly reduced NICD
